Where two headings read alike, the source gives them in different places.
Columns and labels:
[1] = system: cyclophosphamide-induced pollakiuria model rats; assay: Effects in cyclophosphamide-induced pollakiuria model rats (continuous cystometrograms); format: in vivo, rat; details: 5 mg/kg intravenous; 20 minutes after vs 20 minutes before administration; compared to the vehicle group, p<0.05
Description: In the experiments, 6 to 7 female SD rats of 7 to 11 weeks old were used for one experimental group. The pollakiuria model (Lecci A et al., British Journal of Pharmacology, 2000, vol. 130, p. 331) was prepared by intraperitoneally administering cyclophosphamide (SIGMA) to rats (150 mg/kg). This model has been considered to be useful as a model of urine storage disorders associated with inflammatory disease, in particular, a model of pollakiuria of interstitial cystitis. Four to five hours after administration of cyclophosphamide, pollakiuria model rats were anesthetized by intraperitoneal administration of urethane (1 g/kg). Thereafter, a small incision was formed in the hypogastrium, and both ureters were ligated, followed by forming small incision in the ureters at the side of the kidney. Next, the bladder apex of each pollakiuria model rat was incised, and a polyethylene tube filled with physiological saline was inserted and indwelled. […]
The number of voiding episodes was counted based on CMGs. Taking the number of voiding episodes counted for a time period of 20 minutes before the administration of the test compound as 100%, the number of voiding episodes counted for a time period of 20 minutes after the administration of the test compound was expressed in %, which was used as the ratio of change in the number of voiding episodes. […]

[2] = target: T1, human muscarinic M3 receptor (Homo sapiens, UniProt P20309); assay: Binding ability to human muscarinic receptors ([3H]N-Methylscopolamine); details: 0.8 nmol/L [3H]N-Methylscopolamine, CHO cells
T1 construct: expressed in transfected cells; host or cells: CHO cells
Description: (§1) CHO cells expressing human muscarinic M1, 2, 3, 4 and 5 receptors, respectively, were used (Buckley N J et al., Mol. Pharmacol., 1989, vol. 35, no. 4, p. 469-476). Receptor binding experiments were carried out according to a conventional method (Luthin G R et al., Pharmacol Exp Ther., 1984, vol. 228, no. 3, p. 648-655). As a radiolabeled ligand, 0.8 nmol/L [^3H]N-Methylscopolamine was used; and as a nonspecific ligand, 1 μmol/L Atoropine was used.

[3] = target: T2, human muscarinic M1 receptor (Homo sapiens, UniProt P11229); assay: as above; details: 0.8 nmol/L [3H]N-Methylscopolamine, CHO cells
T2 construct: expressed in transfected cells; host or cells: CHO cells
T2 sequence (P11229 1-460): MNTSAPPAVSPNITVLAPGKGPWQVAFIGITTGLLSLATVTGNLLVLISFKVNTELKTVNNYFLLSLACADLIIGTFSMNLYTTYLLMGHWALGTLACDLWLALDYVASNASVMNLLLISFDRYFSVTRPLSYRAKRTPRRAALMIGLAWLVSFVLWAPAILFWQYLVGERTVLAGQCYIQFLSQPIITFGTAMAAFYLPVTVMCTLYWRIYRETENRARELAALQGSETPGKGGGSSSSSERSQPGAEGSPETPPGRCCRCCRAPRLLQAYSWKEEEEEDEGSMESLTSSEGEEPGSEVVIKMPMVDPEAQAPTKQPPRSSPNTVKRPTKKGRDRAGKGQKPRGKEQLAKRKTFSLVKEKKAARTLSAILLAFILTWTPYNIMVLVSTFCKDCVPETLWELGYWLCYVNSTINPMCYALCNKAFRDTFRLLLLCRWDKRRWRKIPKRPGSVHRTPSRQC
Description: as §1

[4] = target: T3, human muscarinic M2 receptor (Homo sapiens, UniProt P08172); assay: as above; details: 0.8 nmol/L [3H]N-Methylscopolamine, CHO cells
T3 construct: expressed in transfected cells; host or cells: CHO cells
T3 sequence (P08172 1-466): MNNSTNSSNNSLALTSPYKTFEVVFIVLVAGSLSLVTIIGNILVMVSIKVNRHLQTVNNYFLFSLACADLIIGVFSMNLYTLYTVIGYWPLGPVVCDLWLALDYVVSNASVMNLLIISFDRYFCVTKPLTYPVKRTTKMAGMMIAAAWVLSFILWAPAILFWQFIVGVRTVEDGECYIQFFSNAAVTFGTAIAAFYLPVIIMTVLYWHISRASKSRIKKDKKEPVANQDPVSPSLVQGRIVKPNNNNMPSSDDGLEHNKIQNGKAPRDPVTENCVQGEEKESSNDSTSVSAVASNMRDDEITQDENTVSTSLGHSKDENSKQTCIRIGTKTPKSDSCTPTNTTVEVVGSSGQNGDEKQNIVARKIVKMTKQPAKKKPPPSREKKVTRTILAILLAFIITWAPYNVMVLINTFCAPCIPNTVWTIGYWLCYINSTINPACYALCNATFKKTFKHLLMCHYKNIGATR
Description: as §1

[5] = target: T4, human muscarinic M4 receptor (Homo sapiens, UniProt P08173); assay: as above; details: 0.8 nmol/L [3H]N-Methylscopolamine, CHO cells
T4 construct: expressed in transfected cells; host or cells: CHO cells
T4 sequence (P08173 1-479): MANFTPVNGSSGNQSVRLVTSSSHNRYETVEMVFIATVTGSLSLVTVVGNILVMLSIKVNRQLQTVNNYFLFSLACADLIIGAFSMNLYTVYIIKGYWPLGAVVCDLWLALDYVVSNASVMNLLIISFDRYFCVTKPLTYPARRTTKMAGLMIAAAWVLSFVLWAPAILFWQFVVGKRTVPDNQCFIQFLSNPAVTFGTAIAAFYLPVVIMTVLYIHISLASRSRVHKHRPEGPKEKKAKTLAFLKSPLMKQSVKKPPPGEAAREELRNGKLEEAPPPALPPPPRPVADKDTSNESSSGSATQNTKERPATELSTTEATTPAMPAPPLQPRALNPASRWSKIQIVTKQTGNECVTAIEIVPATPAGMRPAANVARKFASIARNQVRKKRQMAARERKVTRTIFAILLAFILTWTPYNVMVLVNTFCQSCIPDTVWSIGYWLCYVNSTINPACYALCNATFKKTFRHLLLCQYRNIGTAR
Description: as §1

[6] = target: T5, human muscarinic M5 receptor (Homo sapiens, UniProt P08912); assay: as above; details: 0.8 nmol/L [3H]N-Methylscopolamine, CHO cells
T5 construct: expressed in transfected cells; host or cells: CHO cells
T5 sequence (P08912 1-532): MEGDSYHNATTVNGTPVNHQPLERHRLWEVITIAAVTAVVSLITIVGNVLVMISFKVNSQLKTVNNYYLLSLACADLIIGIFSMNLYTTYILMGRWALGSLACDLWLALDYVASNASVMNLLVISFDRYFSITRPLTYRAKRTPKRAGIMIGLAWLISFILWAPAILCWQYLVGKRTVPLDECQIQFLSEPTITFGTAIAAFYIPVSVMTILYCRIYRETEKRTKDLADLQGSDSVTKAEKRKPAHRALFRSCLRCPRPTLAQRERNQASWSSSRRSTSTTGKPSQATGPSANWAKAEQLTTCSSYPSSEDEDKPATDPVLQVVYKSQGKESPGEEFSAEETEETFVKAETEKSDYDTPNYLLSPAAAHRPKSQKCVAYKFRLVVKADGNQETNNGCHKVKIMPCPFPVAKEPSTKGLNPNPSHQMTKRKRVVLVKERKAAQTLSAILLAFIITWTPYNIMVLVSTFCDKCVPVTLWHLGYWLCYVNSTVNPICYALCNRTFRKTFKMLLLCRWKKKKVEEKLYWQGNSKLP
Description: as §1

[7] = system: muscarinic receptor subtypes; assay: Binding ability to human muscarinic receptors, overall statement; details: any of M1 to M5; 10 μmol/L
Description: as §1

[8] = system: mouse acetic acid writhing model; assay: Mouse acetic acid writhing model (effects on pain); format: in vivo; details: oral, 45 minutes before 0.6% acetic acid i.p., read-out: ED50 (dose by which the writhing response was inhibited by 50%)
Description: The mouse acetic acid writhing model, by which pain can be evaluated, was used to evaluate the analgesic effect of Compound (I).
Male ddY mice of 5 to 6 weeks old were fasted for 16 hours while allowing them to freely drink water, and a test compound solution or its vehicle was orally administered (10 mL/kg) to them. DMSO:Tween80:distilled water (1:1:8) or 27% hydroxypropyl-β-cyclodextrin (hereinafter “HP-β-CD”) was used as a vehicle of test compound solutions. Forty five minutes after the administration, 0.6% acetic acid solution (10 mL/kg) was intraperitoneally administered thereto to induce writhing response (i.e., the behavior to stretch the body and/or bend the body backward). The number of the writhing response observed for 10 minutes from 10 minutes after the administration of acetic acid solution was counted, which was taken as an indicator of pain.
Taking the mean number of writhing response of the vehicle group as 100%, the dose of a test compound by which the response was inhibited by 50% was expressed as “ED50”.

T1 sequence (P20309 whole entry): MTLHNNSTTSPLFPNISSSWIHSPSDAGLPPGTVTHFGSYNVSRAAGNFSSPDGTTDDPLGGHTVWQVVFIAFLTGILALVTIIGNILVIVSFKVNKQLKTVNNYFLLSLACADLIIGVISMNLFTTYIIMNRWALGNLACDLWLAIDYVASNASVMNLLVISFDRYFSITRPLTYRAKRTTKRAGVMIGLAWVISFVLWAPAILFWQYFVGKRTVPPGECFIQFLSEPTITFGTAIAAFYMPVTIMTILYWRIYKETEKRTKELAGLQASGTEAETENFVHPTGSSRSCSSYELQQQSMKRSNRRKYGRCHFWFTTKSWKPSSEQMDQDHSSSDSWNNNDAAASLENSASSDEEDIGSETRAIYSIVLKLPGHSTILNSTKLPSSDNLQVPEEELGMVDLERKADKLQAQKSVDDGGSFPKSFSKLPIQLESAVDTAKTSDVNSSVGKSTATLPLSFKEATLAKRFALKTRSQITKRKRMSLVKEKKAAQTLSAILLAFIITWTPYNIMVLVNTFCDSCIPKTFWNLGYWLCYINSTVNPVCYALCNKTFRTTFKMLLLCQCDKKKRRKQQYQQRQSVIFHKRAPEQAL

| SMILES | ED50 ([8]; Vehicle B (HP-β-CD)) | also measured |
| --- | --- | --- |
| COc1ccc(-n2nc(C3(O)CCC(O)CC3)cc2-c2ccc(C)cc2)cc1 (stereo not drawn) [Compound 3, 1-(1-(4-methoxyphenyl)-5-(p-tolyl)-1H-pyrazol-3-yl)cyclohexan-cis-1,4-diol] |  | increase in the number of voiding episodes (ratio of change in the number of voiding episodes) [1]: significantly improved; Inhibition Ratio by 10 μmol/L Compound 3 (%) [2]: −4%; Inhibition Ratio by 10 μmol/L Compound 3 (%) [3]: −10%; Inhibition Ratio by 10 μmol/L Compound 3 (%) [4]: −6%; Inhibition Ratio by 10 μmol/L Compound 3 (%) [5]: −1%; Inhibition Ratio by 10 μmol/L Compound 3 (%) [6]: −4%; binding to muscarinic receptor subtypes [7]: did not bind |
| COc1ccc(-n2nc(C3(O)CCC(=O)CC3)cc2-c2ccc(C)cc2)cc1 [Compound 4, 4-hydroxy-4-(1-(4-methoxyphenyl)-5-(p-tolyl)-1H-pyrazol-3-yl)cyclohexan-1-one] |  | ED50 ([8]; Vehicle A (DMSO:Tween80:distilled water=1:1:8)): 1.95 mg/kg |
| COc1ccc(-n2nc(C3(O)CCC(OC(C)=O)CC3)cc2-c2ccc(C)cc2)cc1 (stereo not shown) [Compound 12, c-4-hydroxy-4-(1-(4-methoxyphenyl)-5-(p-tolyl)-1H-pyrazol-3-yl)-cyclohexan-r-1-yl acetate] | 1.77 mg/kg |  |
| COc1ccc(-n2nc(C3(O)CCC(O)CC3)cc2-c2ccc(C)nc2)cc1 (stereo not drawn) [Compound 15, 1-(1-(4-methoxyphenyl)-5-(6-methylpyridin-3-yl)-1H-pyrazol-3-yl)cyclohexan-cis-1,4-diol] | 6.07 mg/kg |  |
| COc1ccc(-c2nc(C3(O)CCC(O)(C(F)(F)F)CC3)sc2-c2ccc(C)cc2)cc1 (stereo not drawn) [Compound 46, 1-(4-(4-methoxyphenyl)-5-(p-tolyl)thiazol-2-yl)-4-(trifluoromethyl)cyclohexan-cis-1,4-diol] | 9.65 mg/kg |  |
| Cc1ccc(-c2cc(C3(O)CCC(O)CC3)nn2-c2ccc(C#N)cc2)cc1 (stereo not shown) [Compound 49] | 2.69 mg/kg |  |
| COc1ccc(-n2nc(C3(O)CCC(O)CC3)cc2-c2ccc(C#N)cc2)cc1 (stereo not shown) [Compound 51] | 4.69 mg/kg |  |
| COc1ccc(-n2nc(C3(O)CCC(O)CC3)cc2-c2ccc(C)cc2)cc1F (stereo not shown) [Compound 54] | 3.73 mg/kg |  |
| COc1ccc(-n2nc(C3(O)CCC(OC(=O)OC4CCCCC4)CC3)cc2-c2ccc(C)cc2)cc1 (stereo not drawn) [Compound 60, cyclohexyl 4-hydroxy-4-(1-(4-methoxyphenyl)-5-(p-tolyl)-1H-pyrazol-3-yl)-cis-cyclohexyl carbonate] | 6.18 mg/kg |  |
| CCOC(=O)OC1CCC(O)(c2cc(-c3ccc(C)cc3)n(-c3ccc(OC)cc3)n2)CC1 (stereo not shown) [Compound 61] | 4.79 mg/kg |  |

— patent publication US8642625B2, “Therapeutic agent or preventive agent for urine collection disorder” (Toray Industries, Inc., priority 2010, dated 2014)
